The results in this text go back to US6054437A, “Method for inducing death of neoplastic cells using piperazine derivatives” (Hitachi Chemical Research Center, Inc., priority 1997, dated 2000).

The structures appear in SMILES notation. Entries after “also recorded” stand apart in the source; their conditions may differ. Counter-ions that a name gives are not always drawn. Like-named read-outs stand apart in the source and are kept apart here.

In one data set the test system is HEP-129 (liver). Kind of data set: Cancer cell death assay (LDH release), liver line. Particulars: compound alone, 24 hours. The class given is cell-based, human. On the procedure:
(§1) FIG. 4 is a graph showing the relationship between LDH released and the concentration of NCO-700 in cancer cell death assays of human cancer cell lines MCF-7 (breast), HL-60 (leukemia), and HEP-129 (liver).
(§2) 1. Cancer Cell Death Assay
(§3) Cell death was measured quantitatively by the release of a marker intracellular enzyme, lactate dehydrogenase (LDH), from damaged or killed cells. LDH released into the extracellular fluid, was measured 24 hours after drug exposure to cancer cells and the enzyme activity was determined by the method of Decker et al. (J. Immunolog Methods 15:61-99, 1988).
(§4) All cell lines used in the present study were obtained from the American Type Tissue Culture Laboratory and cultured according to their specifications. All were human cancer lines unless otherwise noted. The following cell lines and their tissue of origin used in our studies were:
(§5) The first assays performed measured the anti-neoplastic activity of NCO-700, alone, in cell death assays of a wide variety of human cancer cells. The results of these experiments are shown in FIGS. 1-6, where a dose-response curve of NCO-700 versus % LDH release is plotted, with higher values of LDH released indicating greater anti-neoplastic activity (apoptosis).
For orientation: LDH leaks from cells whose membrane has failed.

The next data set deals with DU-145 (prostate). Nature of the data set: Cancer cell death assay, NCO-700 versus Calpain inhibitor 1. In kind it is cell-based, human. Here is the method:
as §3
Based on Experiment 1 above, the anti-cancer activity of NCO-700 and Calpain inhibitor 1 (N-acetyl-leu-leu-norleucinal, C20 H37 N3 O4) was tested in cancer cell death assays of human cancer cell line DU-145.

A further data set has as its system WIDR (colon). Kind of data set: Cancer cell survival assay, WIDR. In kind it is cell-based, human. The note with it: seven days, alone. On the procedure:
(§6) Cell survival was assayed in cultured tumor cells. From 500-1000 cells per well were plated in 24-welled culture dishes and exposed to drug for seven days. After drug exposure, a computerized cell imaging technique was utilized to ascertain the number of viable cells remaining in each culture. From the data, survival curves were plotted and a ED50 (drug concentration that permits 50% cell survival) were calculated.
(§7) The cancer cell survival assay is an important additional in vitro assay to assess the anti-neoplastic activity of compounds as the cells are given a prolonged exposure (seven days) to the drug. FIGS. 9-16 show the effect of increasing the dose of NCO-700 on the survival of a number of cancer cell lines. […] In the figures, the vertical axis is the object area, which is the number of surviving cancer cells calculated by a computer.
FIGS. 26-31 show the effect of increasing the dose of TOP-008 against a number of cancer cell lines. […] For example, if the activity of NCO-700 and TOP-008 are compared against the human colon cancer cell line WIDR (FIG. 16 in Experiment 1 versus FIG. 31) it is seen that the effective dose of TOP-008 is much lower in this particular assay.

Another data set concerns KB-3 (sensitive). Kind of data set: Cell survival assay with vinblastine, sensitive cells. In kind it is cell-based, human. Here is the method: (§8) where the effect of NCO-700 to enhance cancer cell killing by vinblastine was measured.
(§9) In the first two in vitro assays, the drug accumulation assay and the cell survival assay, a human pharyngeal carcinoma cell line (KB-V-1) which is highly resistant to anticancer drugs was used. This cell line was developed by Drs. Ira Pastan and Michael Gottesman of the National Cancer Institute, by step-wise selection in colchicine of drug-resistant cells. The control cancer cell line (KB-3), from which the resistant cell lines were derived, is sensitive to anticancer drugs. The resistant KB-V-1 cell line is approximately 275 times more resistant to vinblastine than the sensitive KB-3 line and has a greatly amplified mdr gene which generates the observed resistance.
(§10) The cell survival experiments shown above were performed by plating KB-3 (sensitive) and KB-V-1 (resistant) cells in 32 mm well plastic dishes at a cell density of 300-500 cells per well. Vinblastine and NCO-700 were added 16 hours after the initial cell plating. After 10 days of incubation at 37°, cell colonies were stained and counted.

Data set [1] deals with ovarian cancer cell lines SW-626 and AN-3-CA. Nature of the data set: Cancer cell death assay (LDH release), ovarian lines. In kind it is cell-based, human. The note with it: compound alone, 24 hours. Here is the method: FIG. 1 is a graph showing the relationship between LDH released and the concentration of NCO-700 in cancer cell death assays of human ovarian cancer cell lines SW-626 and AN-3-CA.
as §2, §3, §4, §5

The next data set has as its system KB-V-1 (resistant). Kind of data set: Cell survival assay with vinblastine, resistant cells. The class given is cell-based, human. Particulars: for IC50: Homo sapiens, KB-V1. Here is the method: as §8, §9, §10
Another data set deals with HL-60 (leukemia). Kind of data set: Cancer cell death assay (LDH release), leukemia line. In kind it is cell-based, human. The note with it: compound alone, 24 hours. On the procedure:
as §1, §2, §3, §4, §5

In the next data set the test system is KB-CH 8-5. Kind of data set: In vivo model of tumorigenicity, nude mice carrying resistant human tumor. Here is the method: 3. In Vivo Model of Tumorigenicity
where the effect of NCO-700 in the ability of adriamycin to reduce tumor mass in drug-resistant neoplasms was measured.
For the in vivo model of tumorigenicity, cell lines developed by Pastan and Gottesman which can grow as solid tumors in nude mice were utilized. This cell line was designated KB-CH 8-5, and was a nonreverting resistant cell line. All of these cancer cell lines were generously provided by Dr. Gottesman.
In the next series of experiments, an in vivo model of tumorigenicity was utilized to examine the effect of NCO-700 on tumor mass. These experiments were performed with the cell line KB-CH-8/5, which is a cell line developed by Drs. Gottesman and Pastan, specifically for use in animals as the cells from solid tumors in vivo. Nude male mice, 5-6 weeks old and weighing between 25-30 g, were injected subcutaneously with 2-5×10^6 KB-CH-8/5 cells and treated for 14 days with 0.6 mg/kg adriamycin and with or without NCO-700 in doses ranging from 0-80 mg/kg NCO-700 per day. The data shown in FIG. 37 were obtained by weighing the well-encapsulated, excised tumor and recording the body weight of the mice.

In a further data set the test system is LN (prostate). Nature of the data set: Cancer cell survival assay, LN. The class given is cell-based, human. The note with it: seven days, alone. Here is the method: as §6, §7
The subject of another data set is colon cancer cell lines. Nature of the data set: Cancer cell death assay (LDH release), colon lines. In kind it is cell-based, human. The note with it: compound alone, 24 hours. On the procedure: as §2, §3, §4, §5
(§11) In FIG. 8, a dose-response curve is shown of the effect of TOP-008 on the killing of breast, prostate and colon cell lines.

In data set [2] the test system is prostate cancer cell lines. Nature of the data set: Cancer cell death assay (LDH release), prostate lines. The note with it: compound alone, 24 hours. The class given is cell-based, human. Here is the method:
as §2, §3, §4, §5, §11

As to `CCOC(=O)[C@@H]1O[C@H]1C(=O)N[C@@H](CC(C)C)C(=O)N1CCN(Cc2ccc(OC)c(OC)c2OC)CC1` [NCO-700, Bis[ethyl (2R,3R)-3-[(S)-3-methyl-1-[4-(2,3,4-trimethoxyphenylmethyl)piperazin-1-ylcarbonyl]butylcarbamoyl]oxirane-2-carboxylate] Sulfate], the “anti-neoplastic activity (LDH release)” value in the data set on HEP-129 (liver) is “did not respond”; in data set [1], “partly responsive”; in the data set on HL-60 (leukemia), “did not respond”; in the data set on colon cancer cell lines, “partly responsive”; in [2], “the cell lines that were testosterone receptor negative (and more malignant) responded very well”. Further, in the data set on DU-145 (prostate) (DU-145, 100 μM), the “potency relative to Calpain inhibitor 1” value was roughly 10 fold. In the data set on DU-145 (prostate) (DU-145, FIG. 33), the “anti-cancer activity compared with Calpain inhibitor 1” value is given as “clearly superior to the other inhibitor”. Also, the “anti-neoplastic activity (cell survival)” value in the data set on WIDR (colon) and in the data set on LN (prostate) was “significant anti-neoplastic activity” throughout. The IC50 came out at 0.0016 µg/mL in the data set with KB-3 (sensitive) (Homo sapiens, KB-3, + 25 μM NCO-700, read-out: vinblastine to kill 50% of cells); 0.148 µg/mL in the data set with KB-V-1 (resistant) (KB-V-1, + 25 μM NCO-700, read-out: vinblastine to kill 50% of cells); 0.16 µg/mL in the data set with KB-V-1 (resistant) (KB-V-1, + 30 μM NCO-700, read-out: level of vinblastine needed to kill 50% of the tumor cells). Further, the “enhancement of killing by vinblastine” value in the data set on KB-3 (sensitive) (sensitive KB-3 cells) is given as “slight enhancement of the killing of sensitive KB-3 cells”. For the same compound, the “enhancement of killing of resistant cells by vinblastine” value in the data set with KB-V-1 (resistant) (drug-resistant cells, with vinblastine) is reported as “enhanced killing of the drug-resistant cells; also recorded: dramatic effect; also recorded: highly significant increase in the killing of these cancer cells”. The “effect on tumor, alone” value in the data set on KB-CH 8-5 (NCO-700 on its own) is reported as “not significantly effective on its own”. Besides, in the data set on KB-CH 8-5 (NCO-700 with adriamycin), the “decline of tumor mass” value amounted to 60%. Besides, in the data set on KB-CH 8-5 (nude mice carrying resistant human tumor), the “loss of body weight” value is recorded as “without any corresponding loss of body weight”. Further, the “potentiation of the effect of adriamycin on tumor” value in the data set with KB-CH 8-5 (with 0.6 mg/kg adriamycin, 14 days, NCO-700 0-80 mg/kg per day) is “significantly potentiated the effect of adriamycin, especially at an amount of 40 mg/kg or more”.
